“And” between values parts separate entries of the source, which are not always exact repeats. Identical values can stand only once. Like-named read-outs stand apart in the source and are kept apart here.
Tests used:
Format in all cases: physicochemical
[1] = Particle size distribution by Fraunhofer light diffraction
Protocol: (§1) Pilot manufacture batches producing Modification HA and Form A on kilogram scale were compared for their respective bulk powder properties. The particle size distribution (PSD) was determined according to the corresponding method for release. Other measurements were performed using technical methods known in the art or as described herein.
A few drops of the dispersing aid were added to an appropriate amount of test substance. The mixture was mixed intensively, e.g. on a vortex mixer, in order to wet the substance thoroughly and to form a smooth and homogeneous paste. The resultant paste was diluted with the dispersion liquid to a final volume of 3-6 ml and the dispersion mixed again. The cumulative volume distribution was determined using a laser light diffraction instrument as stated above. The parameters could be adjusted accordingly so that the test dispersion is representative, homogeneous and well dispersed.
Particle sizes were determined at the undersize values of 10%, 50% and 90% (×10, ×50, ×90), and additional values in question, from the cumulative volume distribution.

[2] = Solubility at 25° C., 24 hours slurry; conditions: for Solubility / solubility at 24 h: approx. at 25° C., target concentration 10 mg/mL; for Final pH / XRPD of solid after equilibration: 25° C.; for solubility at 24 h: 25 °C, thermodynamic from solid, read-out: Solubility
Protocol: A sample was weighed in a glass vial and solvent added to make a slurry followed by stirring or shaking at 25° C. for 24 hours. The amount of sample and solvents depends on the target concentration, e.g. if the target concentration is 10 mg/mL, the weight of the sample should be 10 mg and the amount of solvent volume should be 1 mL. The solid and liquid are separated by centrifugation at 13000 rpm for 2 minutes with 0.2 μm membrane. The filtrate is then used for the solubility test after appropriate dilution. The diluent is from the UPLC method. The solids obtained after equilibration were analyzed by XRPD after being dried at 40° C. under vacuum for 2 hours. DSC/TGA analysis was conducted for selected samples.

[3] = Hygroscopicity, storage and solubility conclusions
From the text: The term “non-hygroscopic” as used herein refers to a compound showing a water uptake of at most 2 w-% in the sorption cycle when measured with GMS (or DVS) at a relative humidity in the range of from 0 to 95% RH and a temperature of (25.0±0.1) ° C., based on the weight of the compound. Non-hygroscopic is preferably up to 0.2%.

[4] = Stability testing, solid state bulk (UPLC, color, XRPD, TGA); conditions: for Degradation Products (DP), UPLC / TGA (%) Weight loss at 175° C. / XRPD: solid state
Protocol: (§2) X-ray powder diffraction (XRPD) analysis of all polymorph forms was performed using a Bruker D8 Discover x-ray diffractometer with XYZ stage. Measurements were taken at about 40 kV and 1 mA under the following conditions:
(§3) Crystalline Monohydrate Form HA was analysed by thermogravimetric analysis (TGA) using a Discovery Thermogravimetric Analysis Calorimeter from TA instruments under the following conditions (see Table 6).
(§4) No notable change in chemical purity, nor change in XRPD, nor change in TGA, was observed.

[5] = Bulk density and flowability with ring shear tester
Protocol: as §1

[6] = Stability testing, solid state bulk (UPLC, color, XRPD, TGA); set-up: key: A: No change of color; conditions: solid state
Protocol: as §2, §3, §4

[7] = Behaviour under compression, grinding and granulation with water
[8] = pilot manufacture batch, kilogram scale
[9] = 1 week/80° C., glass vials with screw caps
[10] = 1 week/80° C./75% RH, open bottles
[11] = 2 weeks/50° C., glass vials with screw caps
[12] = 2 weeks/50° C./75% RH, open bottles
[13] = 2 weeks/80° C., glass vials with screw caps
[14] = 2 weeks/80° C./75% RH, open bottles
[15] = 3 months/40° C./75% RH, open bottles
[16] = 4 weeks/50° C., glass vials with screw caps
[17] = 4 weeks/50° C./75% RH, open bottles
[18] = Xenon light (approx. 1200 kLuxh)

Compound: Cc1ccc(NC(=O)c2ccnc(C(F)(F)F)c2)cc1-c1cc(OCCO)nc(N2CCOCC2)c1 [Monohydrate HA, N-(3-(2-(2-hydroxyethoxy)-6-morpholinopyridin-4-yl)-4-methylphenyl)-2-(trifluoromethyl)isonicotinamide]
- Factor of diameter X10, Monohydrate HA vs. Modification A ([1]; 131 μm vs. 2 μm): > 10
- Diameter X of PSD measured during release, X50 [1, 8]: X50: 277 μm
- Diameter X of PSD measured during release, X90 [1, 8]: X90: 414 μm
- Solubility ([2]; FaSSIF (pH 6.5), LOQ = 0.002517 mg/mL): LOQ
- Final pH ([2]; FaSSIF, pH 6.5): 6.44
- XRPD of solid after equilibration ([2]; FaSSIF, pH 6.5): No change
- solubility at 24 h ([2]; FeSSIF, pH 5.8, fessif, FeSSIF (pH 5.8), LOQ = 0.002517 mg/mL): 3.2 µg/mL
- Final pH ([2]; FeSSIF, pH 5.8): 5.69
- XRPD of solid after equilibration ([2]; FeSSIF, pH 5.8): No change
- Final pH ([2]; SGF (pH 2)): 2.07
- XRPD of solid after equilibration ([2]; SGF (pH 2)): No change
- solubility at 24 h ([2]; SGF, pH 2, simulated gastric fluid, SGF (pH 2), LOQ = 0.002517 mg/mL): 2.2 µg/mL
- Final pH ([2]; Water): 7.22
- XRPD of solid after equilibration ([2]; Water): No change
- Solubility ([2]; Water, LOQ = 0.002517 mg/mL): LOQ
- solubility at 24 h ([2]; acetonitrile, organic solvent or mixture, Acetonitrile): > 10000 µg/mL
- solubility at 24 h ([2]; dichloromethane, organic solvent or mixture, Dichloromethane): > 10000 µg/mL
- solubility at 24 h ([2]; ethanol abs., organic solvent or mixture, Ethanol abs.): > 10000 µg/mL
- solubility at 24 h ([2]; ethyl acetate, organic solvent or mixture, Ethyl acetate): > 10000 µg/mL
- solubility at 24 h ([2]; methanol, organic solvent or mixture, Methanol): > 10000 µg/mL
- solubility at 24 h ([2]; octanol, organic solvent or mixture, Octanol): > 10000 µg/mL
- Final pH ([2]; pH 1 (0.1N HCl)): 1.06
- XRPD of solid after equilibration ([2]; pH 1 (0.1N HCl)): No change
- Solubility ([2]; pH 1 (0.1N HCl), LOQ = 0.002517 mg/mL): LOQ
- Final pH ([2]; pH 2 (0.01N HCl)): 2.12
- XRPD of solid after equilibration ([2]; pH 2 (0.01N HCl)): No change
- Solubility ([2]; pH 2 (0.01N HCl), LOQ = 0.002517 mg/mL): LOQ
- Final pH ([2]; pH 4.7 acetate buffer): 4.73
- XRPD of solid after equilibration ([2]; pH 4.7 acetate buffer): No change
- Solubility ([2]; pH 4.7 acetate buffer, LOQ = 0.002517 mg/mL): LOQ
- Final pH ([2]; pH 6.8 phosphate buffer): 6.74
- XRPD of solid after equilibration ([2]; pH 6.8 phosphate buffer): No change
- Solubility ([2]; pH 6.8 phosphate buffer, LOQ = 0.002517 mg/mL): LOQ
- Final pH ([2]; pH 9.0 borate buffer): 8.88
- XRPD of solid after equilibration ([2]; pH 9.0 borate buffer): No change
- Solubility ([2]; pH 9.0 borate buffer, LOQ = 0.002517 mg/mL): LOQ
- Solubility, overall rating [3]: adequate solubility
- Stability when stored in bulk quantities [3]: stable when stored in bulk quantities
- Hygroscopicity ([3]; non-hygroscopic defined as water uptake at most 2 w-%, 0 to 95% RH, 25° C. (GMS/DVS)): non-hygroscopic
- Stability upon light exposure ([4]; 1200 kLuxh for 12 h): stable upon light exposure
- Degradation Products (DP), UPLC [4, 9]: 0.27%
- TGA (%) Weight loss at 175° C. [4, 9]: 3.60% and 3.56%
- XRPD [4, 9]: No change
- Degradation Products (DP), UPLC [4, 10]: 0.30% and 0.26%
- TGA (%) Weight loss at 175° C. [4, 10]: 3.76% and 3.86%
- XRPD [4, 10]: No change
- Degradation Products (DP), UPLC [4, 11]: 0.29% and 0.33%
- TGA (%) Weight loss at 175° C. [4, 11]: 3.76% and 3.89%
- XRPD [4, 11]: No change
- Degradation Products (DP), UPLC [4, 12]: 0.27% and 0.25%
- TGA (%) Weight loss at 175° C. [4, 12]: 3.66% and 3.65%
- XRPD [4, 12]: No change
- Degradation Products (DP), UPLC [4, 13]: 0.29%
- TGA (%) Weight loss at 175° C. [4, 13]: 3.67% and 3.76%
- XRPD [4, 13]: No change
- Degradation Products (DP), UPLC [4, 14]: 0.26% and 0.28%
- TGA (%) Weight loss at 175° C. [4, 14]: 3.60% and 3.66%
- XRPD [4, 14]: No change
- Degradation Products (DP), UPLC [4, 15]: 0.53% and 0.30%
- TGA (%) Weight loss at 175° C. [4, 15]: 3.55% and 3.60%
- XRPD [4, 15]: No change
- Degradation Products (DP), UPLC [4, 16]: 0.28% and 0.27%
- TGA (%) Weight loss at 175° C. [4, 16]: 3.75% and 3.63%
- XRPD [4, 16]: No change
- Degradation Products (DP), UPLC [4, 17]: 0.30% and 0.27%
- TGA (%) Weight loss at 175° C. [4, 17]: 3.78% and 3.69%
- XRPD [4, 17]: No change
- Degradation Products (DP), UPLC [4, 18]: 0.36% and 0.30%
- TGA (%) Weight loss at 175° C. [4, 18]: 3.76% and 3.90%
- XRPD [4, 18]: No change
- Stability in bulk ([4]; up to 80° C. over an extended period of time, no notable change in chemical purity, XRPD, TGA): highly stable in bulk
- Factor of bulk density, Monohydrate HA versus Modification A ([5]; 696 kg/m^3 versus 71 kg/m^3): ~10
- Bulk flowability with ring shear tester, rating in words ([5]; under 1250 Pa normal stress): “free flowing”
- Technical measurement of bulk flowability with ring shear tester ([5]; under 1250 Pa normal stress): 13.7
- Technical measurement of bulk density with ring shear tester ([5]; under no consolidation stress): 696 kg/m^3
- Color (CL) [6, 9]: A
- Color (CL) [6, 10]: A
- Color (CL) [6, 11]: A
- Color (CL) [6, 12]: A
- Color (CL) [6, 13]: A
- Color (CL) [6, 14]: A
- Color (CL) [6, 15]: A
- Color (CL) [6, 16]: A
- Color (CL) [6, 17]: A
- Color (CL) [6, 18]: A
- Stability upon compression, grinding and wet granulation with water [7]: stable upon compression, grinding and wet granulation with water
